# Measurements as given in ChEMBL document CHEMBL6153032, “Discovery of a highly potent, N-terminal domain-targeting degrader of AR-FL/AR-V7 for the treatment of prostate cancer” (Eur J Med Chem, 2025).
# pIC50: −log10 of the molar value. Calls of active or inactive are those of the source. No cut-off for these calls is given here.
# Key:
# [1] = Metabolic stability in mouse liver microsome assessed as half life measured upto 45 mins by LC/MS analysis; type: ADME; conditions: liver microsomes
# [2] = Antiproliferative activity against human MCF-10A cells assessed as cell viability incubated for 4 days by CCK-8 assay; type: toxicity, cell-based
# CWR22R [3] = assay: Induction of cell cycle arrest in human 22Rv1 cells assessed as accumulation of cells at G0/G1 phase at 100 nM incubated for 24 hrs by PI staining based flow cytometry analysis (reference value: 62.66%); type: functional
# [4] = Cmax in Sprague-Dawley rat 2 mg/kg, iv by LC-MS/MS analysis; type: ADME, organism-based; conditions: in vivo
# CWR22R [5] = assay: Induction of cell cycle arrest in human 22Rv1 cells assessed as accumulation of cells at G2/M phase at 100 nM incubated for 24 hrs by PI staining based flow cytometry analysis (reference value: 8.61%); type: functional
# CWR22R [6] = assay: Antitumor activity against human 22Rv1 cells xenografted in BALB/c nude mouse assessed as reduction in AR level at 10 mg/kg, iv administered once daily for 21 days; type: functional, organism-based; conditions: time 21.0 day
# [7] = Volume of distribution at steady state in Sprague-Dawley rat 2 mg/kg, iv by LC-MS/MS analysis; type: ADME, organism-based; conditions: in vivo, read-out: Vdss
# [8] = target: T1, Protein cereblon/Androgen receptor (Homo sapiens, UniProt P10275+Q96SW2); assay: PROTAC activity at full length Androgen receptor/CRBN in human 22Rv1 cells assessed as induction of full length Androgen receptor degradation at 1 uM incubated for 24 hrs by Western blot analysis relative to control; type: cell-based
# Target sequence in this assay (P10275 whole entry, looked up): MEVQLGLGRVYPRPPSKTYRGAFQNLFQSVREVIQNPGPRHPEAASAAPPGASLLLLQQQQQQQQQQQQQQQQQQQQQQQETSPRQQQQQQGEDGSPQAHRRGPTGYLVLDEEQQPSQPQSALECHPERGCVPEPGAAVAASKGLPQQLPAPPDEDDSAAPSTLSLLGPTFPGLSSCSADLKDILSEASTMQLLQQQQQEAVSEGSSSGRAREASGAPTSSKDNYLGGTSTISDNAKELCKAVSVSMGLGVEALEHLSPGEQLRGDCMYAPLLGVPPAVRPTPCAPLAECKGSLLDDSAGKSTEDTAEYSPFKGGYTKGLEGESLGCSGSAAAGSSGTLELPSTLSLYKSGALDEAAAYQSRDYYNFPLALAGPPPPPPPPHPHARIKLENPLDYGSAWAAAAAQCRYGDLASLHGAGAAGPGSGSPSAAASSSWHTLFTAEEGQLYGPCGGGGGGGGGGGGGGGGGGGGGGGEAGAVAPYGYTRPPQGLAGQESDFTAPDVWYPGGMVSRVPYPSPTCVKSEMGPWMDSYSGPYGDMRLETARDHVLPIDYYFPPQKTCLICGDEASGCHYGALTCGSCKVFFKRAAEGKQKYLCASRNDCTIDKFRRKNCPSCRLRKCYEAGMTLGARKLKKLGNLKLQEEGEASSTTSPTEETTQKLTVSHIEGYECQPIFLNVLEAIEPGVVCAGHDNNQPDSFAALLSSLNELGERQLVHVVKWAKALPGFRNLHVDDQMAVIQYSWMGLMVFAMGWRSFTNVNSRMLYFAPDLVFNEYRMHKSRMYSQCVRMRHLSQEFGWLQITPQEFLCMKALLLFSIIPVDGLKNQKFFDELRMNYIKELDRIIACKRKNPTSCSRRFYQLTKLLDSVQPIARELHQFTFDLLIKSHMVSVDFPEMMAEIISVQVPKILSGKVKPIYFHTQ
# Target sequence in this assay (Q96SW2 whole entry, looked up): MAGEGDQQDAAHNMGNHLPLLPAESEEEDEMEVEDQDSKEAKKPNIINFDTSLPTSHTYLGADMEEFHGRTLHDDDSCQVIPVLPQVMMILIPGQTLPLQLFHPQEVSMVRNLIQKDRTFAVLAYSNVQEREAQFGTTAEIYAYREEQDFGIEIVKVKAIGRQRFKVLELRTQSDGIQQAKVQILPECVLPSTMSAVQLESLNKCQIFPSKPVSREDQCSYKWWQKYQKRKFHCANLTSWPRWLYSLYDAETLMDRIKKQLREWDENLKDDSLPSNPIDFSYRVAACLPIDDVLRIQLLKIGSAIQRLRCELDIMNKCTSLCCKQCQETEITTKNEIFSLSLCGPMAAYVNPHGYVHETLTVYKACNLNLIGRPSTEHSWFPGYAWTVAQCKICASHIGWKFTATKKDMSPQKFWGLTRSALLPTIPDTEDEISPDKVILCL
# CWR22R [9] = assay: Downregulation of TMPRSS2 mRNA level in human 22Rv1 cells incubated for 24 hrs by qRT-PCR analysis; type: functional, cell-based; conditions: dose 100-500 nM
# [10] = Metabolic stability in rat liver microsome assessed as half life measured upto 45 mins by LC/MS analysis; type: ADME; conditions: liver microsomes
# [11] = target: Voltage-gated inwardly rectifying potassium channel KCNH2 (Homo sapiens, UniProt Q12809); assay: Inhibition of hERG; type: toxicity
# CWR22R [12] = assay: Antiproliferative activity against human 22Rv1 cells incubated for 4 days by CCK-8 assay; type: functional, cell-based; conditions: 22Rv1, 96 h
# [13] = Initial plasma concentration in Sprague-Dawley rat 2 mg/kg, iv by LC-MS/MS analysis; type: ADME, organism-based
# CWR22R [14] = assay: Antitumor activity against human 22Rv1 cells xenografted in BALB/c nude mouse assessed as redcution in tumor weight at 10 mg/kg, iv administered once daily for 21 days; type: functional, organism-based; conditions: time 21.0 day
# [15] = Toxicity in BALB/c mouse assessed as body weight loss at 10 mg/kg, iv administered once daily for 21 days; type: organism-based; conditions: in vivo, 504 h, time 21 day
# [16] = target: T1, Protein cereblon/Androgen receptor; assay: PROTAC activity at full length Androgen receptor/CRBN in human 22Rv1 cells assessed as reduction in full length androgen receptor level at 1 uM by Western blot analysis; type: cell-based; conditions: time 6.0 hrs
# Target sequence in this assay (P10275 whole entry, looked up): as the sequence (P10275 whole entry, looked up) above
# Target sequence in this assay (Q96SW2 whole entry, looked up): as the sequence (Q96SW2 whole entry, looked up) above
# [17] = target: T1, Protein cereblon/Androgen receptor; assay: PROTAC activity at full length Androgen receptor/CRBN in human LNCaP cells assessed as reduction in full length androgen receptor level incubated for 24 hrs by Western blot analysis; type: cell-based
# LNCaP = assay: PROTAC activity at AR-V7/CRBN in human LNCaP cells assessed as reduction in AR-V7 level incubated for 24 hrs by Western blot analysis; type: cell-based; conditions: dose <= 5.0 µM
# [18] = tested on: Protein cereblon/Androgen receptor (Homo sapiens), P10275+Q96SW2 [UNDEFINED MUTATION]; assay: PROTAC activity at AR-V7/CRBN in human 22Rv1 cells assessed as induction of AR-V7 degradation at 100 nM incubated for 12 hrs in presence of MG132 by Western blot analysis; type: cell-based; conditions: CWR22R
# [19] = Toxicity in BALB/c mouse assessed as kidney damage at 10 mg/kg, iv administered once daily for 21 days by H and E staining based analysis; type: organism-based; conditions: in vivo, 504 h, time 21 day
# [20] = tested on: Protein cereblon/Androgen receptor (Homo sapiens), P10275+Q96SW2 [UNDEFINED MUTATION]; assay: PROTAC activity at AR-V7/CRBN in human 22Rv1 cells assessed as induction of AR-V7 degradation at 100 nM incubated for 12 hrs in presence of Thalidomide by Western blot analysis; type: cell-based; conditions: CWR22R
# [21] = tested on: Protein cereblon/Androgen receptor (Homo sapiens), P10275+Q96SW2 [UNDEFINED MUTATION]; assay: PROTAC activity at AR-V7/CRBN in human 22Rv1 cells assessed as reduction in AR-V7 level at 1 uM by Western blot analysis; type: cell-based; conditions: CWR22R, time 6.0 hrs
# [22] = Metabolic stability in human liver microsome assessed as half life measured upto 45 mins by LC/MS analysis; type: ADME; conditions: liver microsomes
# [23] = Metabolic stability in mouse liver microsome assessed as intrinsic clearance measured upto 45 mins by LC/MS analysis; type: ADME; conditions: liver microsomes, read-out: CLH
# CWR22R [24] = assay: Antitumor activity against human 22Rv1 cells xenografted in BALB/c nude mouse assessed as redcution in tumor volume at 10 mg/kg, iv administered once daily for 21 days; type: functional, organism-based; conditions: time 21.0 day
# [25] = Half life in Sprague-Dawley rat 2 mg/kg, iv by LC-MS/MS analysis; type: ADME, organism-based; conditions: in vivo
# [26] = target: T1, Protein cereblon/Androgen receptor; assay: PROTAC activity at full length Androgen receptor/CRBN in human 22Rv1 cells assessed as reduction in full length androgen receptor level at 100 nM incubated for 24 hrs by immunofluorescence analysis; type: cell-based
# Target sequence in this assay (P10275 whole entry, looked up): as the sequence (P10275 whole entry, looked up) above
# Target sequence in this assay (Q96SW2 whole entry, looked up): as the sequence (Q96SW2 whole entry, looked up) above
# CWR22R [27] = assay: Induction of apoptosis in human 22Rv1 cells assessed as late apoptotic cells at 100 nM incubated for 48 hrs by Annexin V/FITC staining based flow cytometry analysis (reference value: 1.12 %); type: functional
# [28] = tested on: Protein cereblon/Androgen receptor (Homo sapiens), P10275+Q96SW2 [UNDEFINED MUTATION]; assay: PROTAC activity at AR-V7/CRBN in human 22Rv1 cells assessed as reduction in AR-V7 level at 100 nM incubated for 24 hrs by immunofluorescence analysis; type: cell-based; conditions: CWR22R
# CWR22R [29] = assay: Induction of cell cycle arrest in human 22Rv1 cells assessed as accumulation of cells at S phase at 500 nM incubated for 24 hrs by PI staining based flow cytometry analysis (reference value: […]%); type: functional
# CWR22R [30] = assay: Induction of apoptosis in human 22Rv1 cells assessed as late apoptotic cells at 500 nM incubated for 48 hrs by Annexin V/FITC staining based flow cytometry analysis (reference value: 1.12 %); type: functional
# [31] = Metabolic stability in rat liver microsome assessed as intrinsic clearance measured upto 45 mins by LC/MS analysis; type: ADME; conditions: liver microsomes, read-out: CLH
# [32] = target: T1, Protein cereblon/Androgen receptor; assay: PROTAC activity at full length Androgen receptor/CRBN in human 22Rv1 cells assessed as induction of full length androgen receptor degradation at 100 nM incubated for 12 hrs in presence of MLN4924 by Western blot analysis; type: cell-based
# Target sequence in this assay (P10275 whole entry, looked up): as the sequence (P10275 whole entry, looked up) above
# Target sequence in this assay (Q96SW2 whole entry, looked up): as the sequence (Q96SW2 whole entry, looked up) above
# [33] = target: T1, Protein cereblon/Androgen receptor; assay: PROTAC activity at full length Androgen receptor/CRBN in human 22Rv1 cells assessed as induction of full length Androgen receptor degradation at 5 uM incubated for 24 hrs by Western blot analysis relative to control; type: cell-based
# Target sequence in this assay (P10275 whole entry, looked up): as the sequence (P10275 whole entry, looked up) above
# Target sequence in this assay (Q96SW2 whole entry, looked up): as the sequence (Q96SW2 whole entry, looked up) above
# [34] = tested on: Protein cereblon/Androgen receptor (Homo sapiens), P10275+Q96SW2 [UNDEFINED MUTATION]; assay: PROTAC activity at AR-V7/CRBN in human 22Rv1 cells assessed as induction of AR-V7 degradation at 1 uM incubated for 24 hrs by Western blot analysis relative to control; type: cell-based; conditions: CWR22R
# [35] = target: T1, Protein cereblon/Androgen receptor; assay: PROTAC activity at full length Androgen receptor/CRBN in human 22Rv1 cells assessed as reduction in full length androgen receptor level incubated for 24 hrs by Western blot analysis; type: cell-based
# [36] = MRT (0 to infinity) in Sprague-Dawley rat 2 mg/kg, iv by LC-MS/MS analysis; type: ADME, organism-based; conditions: in vivo
# Protein cereblon/Androgen receptor (Homo sapiens), P10275+Q96SW2 [UNDEFINED MUTATION], sequence (P10275 whole entry, looked up, stated change not applied): as the sequence (P10275 whole entry, looked up) above
# Protein cereblon/Androgen receptor (Homo sapiens), P10275+Q96SW2 [UNDEFINED MUTATION], sequence (Q96SW2 whole entry, looked up, stated change not applied): as the sequence (Q96SW2 whole entry, looked up) above
# Voltage-gated inwardly rectifying potassium channel KCNH2, sequence (Q12809 whole entry): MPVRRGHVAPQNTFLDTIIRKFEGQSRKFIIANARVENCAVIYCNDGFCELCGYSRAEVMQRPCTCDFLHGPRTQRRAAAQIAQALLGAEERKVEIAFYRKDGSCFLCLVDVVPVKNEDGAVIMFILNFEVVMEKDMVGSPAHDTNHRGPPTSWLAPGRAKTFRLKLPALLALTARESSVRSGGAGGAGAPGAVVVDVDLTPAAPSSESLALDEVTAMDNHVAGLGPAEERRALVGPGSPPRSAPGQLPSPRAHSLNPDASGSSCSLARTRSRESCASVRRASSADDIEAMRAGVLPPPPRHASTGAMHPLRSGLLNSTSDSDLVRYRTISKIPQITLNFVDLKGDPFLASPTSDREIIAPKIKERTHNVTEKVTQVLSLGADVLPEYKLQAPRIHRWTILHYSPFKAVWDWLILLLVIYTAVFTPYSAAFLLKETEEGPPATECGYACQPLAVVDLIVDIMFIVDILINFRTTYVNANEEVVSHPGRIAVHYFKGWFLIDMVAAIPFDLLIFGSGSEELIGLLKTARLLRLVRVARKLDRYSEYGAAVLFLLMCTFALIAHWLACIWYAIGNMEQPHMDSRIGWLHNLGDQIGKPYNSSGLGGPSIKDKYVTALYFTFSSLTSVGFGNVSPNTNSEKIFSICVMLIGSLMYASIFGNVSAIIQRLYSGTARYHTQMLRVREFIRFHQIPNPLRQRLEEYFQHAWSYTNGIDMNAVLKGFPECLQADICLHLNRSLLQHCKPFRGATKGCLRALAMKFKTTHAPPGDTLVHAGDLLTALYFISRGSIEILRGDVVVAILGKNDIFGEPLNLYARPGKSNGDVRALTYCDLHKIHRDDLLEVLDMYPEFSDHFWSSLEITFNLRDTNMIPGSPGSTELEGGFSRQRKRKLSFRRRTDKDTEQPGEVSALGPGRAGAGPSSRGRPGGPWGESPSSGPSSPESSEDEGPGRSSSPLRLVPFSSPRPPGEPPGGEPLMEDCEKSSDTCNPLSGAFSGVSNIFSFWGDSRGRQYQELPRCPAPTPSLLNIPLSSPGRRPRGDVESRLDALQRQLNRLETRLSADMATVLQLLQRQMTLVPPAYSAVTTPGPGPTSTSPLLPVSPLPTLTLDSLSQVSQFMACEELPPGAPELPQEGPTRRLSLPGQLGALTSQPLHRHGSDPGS
structure (smiles),measurement,setting,value
CC(C)(c1ccc(OCCNc2cccc3c2C(=O)N(C2CCC(=O)NC2=O)C3=O)cc1)c1ccc(OCc2cccc(N3CCOCC3)n2)cc1 (centres undefined),half-life,[1],18.4 min
same,IC50 at 4 days,[2],> 80 µM
same,Activity,CWR22R [3],41.16%
same,Cmax,[4],6440 ng/mL
same,Activity,CWR22R [5],15.45%
same,Activity,CWR22R [6],Active
same,Vd,[7],0.571 L/kg
same,Activity,[8],89.2%
same,Activity,CWR22R [9],Dose-dependent-effect
same,half-life,[10],61.1 min
same,pIC50,[11],< 5.00
same,pIC50,CWR22R [12],7.42
same,C0,[13],13900 ng/mL
same,Activity,CWR22R [14],Active
same,Activity,[15],Non-toxic
same,Activity,[16],Time-dependent-effect
same,DC50,[17],0.18 µM
same,Activity,[17]; dose <= 5.0 µM,Dose-dependent-effect
same,Activity,LNCaP,Dose-dependent-effect
same,Activity,[18],Active
same,Activity,[19],Non-toxic
same,Activity,[20],Active
same,Activity,[21],Time-dependent-effect
same,half-life,[22],37.2 min
same,CLint scaled,[23],296 mL/min/kg
same,Activity,CWR22R [24],Active
same,half-life,[25],158 min
same,Activity,[26],Active
same,Activity,CWR22R [27],12.29%
same,Activity,[28],Active
same,Activity,CWR22R [29],38.58%
same,Activity,CWR22R [30],15.59%
same,CLint scaled,[31],40.8 mL/min/kg
same,Activity,[32],Active
same,Activity,[33],90.2%
same,Activity,[34],88.7%
same,DC50,[35],0.18 µM
same,Activity,[35]; dose <= 5.0 µM,Dose-dependent-effect
same,MRT inf,[36],37.2 min
